Data as given in paper PMC10967270, “Intrapulmonary and Systemic Pharmacokinetics of Colistin Following Nebulization of Low-Dose Colistimethate Sodium in Patients with Ventilator-Associated Pneumonia Caused by Carbapenem-Resistant Acinetobacter baumannii” (Antibiotics, 2024).
Like-named read-outs stand apart in the source and are kept apart here. Positions of bridges follow the written chain, without caps; N, C: chain ends. Non-standard residues stand in square brackets, D forms with d. Residues, ends and D or L forms follow the SMILES beside them. *: point of attachment. X1 = CC[C@H](C)CCCCC(=O)*; Dab = NCC[C@H](N)C(=O)O

Assays:
[1] = Population PK model of colistin in epithelial lining fluid (NONMEM, one-compartment, Weibull absorption); assay type: in vivo, human; details: ELF
From the text: (§1) The time courses of colistin concentrations in ELF and plasma were best described using one-compartment models with a Weibull absorption process. The following structural PK model described by two differential equations was applied:(1) dA1/dt=−WB×A1 (2) WB=KAMAX×1−e^−RA×time^GAM (3) dA2/dt=WB×A1−CL/V×A2 where A1 and A2 represent the amounts of colistin in ELF and plasma, and WB denotes the Weibull absorption function with parameters KAMMA, RA, and GAM. KAMMA determines the function’s maximum value, often representing the maximum rate of absorption or event occurrence. RA, the shape parameter, controls the rate of change over time, influencing the distribution’s slope and how quickly it increases or decreases. GAM adjusts the time variable’s exponent, controlling the rate of growth or decline over time, thereby affecting the distribution’s asymmetry and indicating the curve’s speed in reaching its peak or declining. CL and V are the total clearance and volume of distribution for colistin, respectively. The estimated CL and V in Table 2 were expressed as CL/fm and V/fm, respectively, where fm represents the fraction of CMS metabolized to colistin, a value that cannot be estimated from our study data. No significant covariates influencing the PK parameters were identified. The estimated PK parameters for the final PK models are presented in Table 2, while individual fit plots for colistin in ELF and plasma can be found in Figure 2 and Figure 3, respectively. Diagnostic goodness-of-fit plots for the final PK model of colistin in ELF and plasma are shown in Supplementary Materials Figures S1 and S2, respectively. […] With the observed 10th, 50th, and 90th percentiles mostly within the 95% confidence intervals of the simulated percentiles, the final PK models effectively explained the observed concentrations and had good predictive performance.
(§2) A population PK analysis of colistin in ELF and plasma was conducted using NONMEM 7.5.0 (ICON Clinical Research LLC, North Wales, PA, USA). The analysis used first-order conditional estimation with interaction (FOCEI) to estimate both observed fixed and unexplained random effect parameters. The FOCEI allows the inter-individual variability (IIV) in the PK parameters to interact with the residual unexplained variability (RUV) in the observed concentrations. The RUV arises from factors such as within-subject variability, assay error, and potential misspecification of the model. ADVAN1 TRANS2 and ADVAN3 TRANS4 from the NONMEM PK model library were used to construct the single- and two-compartment models, respectively. Except for drug inhalation, all PK processes were assumed to follow first-order kinetics. Various absorption models, including zero-order, first-order, Weibull, and transit absorption models, were investigated to describe the absorption processes of colistin.
(§3) The representation of each PK parameter was given by θi = θ × exp(ηi), where θ stands for the typical value of the PK parameter, θi represents an individual PK parameter, and ηi is a random variable associated with IIV. It was assumed that IIV follows a normal distribution with a mean of 0 and a variance of ω^2. For RUV, which was assumed to be normally distributed with a mean of 0 and a variance of σ^2; additive, proportional, and combined additive and proportional error models were investigated.
(§4) Models were assessed and chosen based on NONMEM objective function values (OFVs), the precision of parameter estimates (relative standard errors), the shrinkage of IIV, and diagnostic goodness-of-fit plots. In the log-likelihood ratio test, if the decrease in OFV (ΔOFV) is greater than 3.84 for models with one additional degree of freedom or greater than 5.99 for models with two additional degrees of freedom, it is considered statistically significant at p < 0.05, indicating an improvement in the model. […]

[2] = Population PK model of colistin in plasma (NONMEM, one-compartment, Weibull absorption); assay type: in vivo, human
From the text: as §1, §2, §3, §4

[3] = cited from earlier work; for Maximum ELF concentration, median (IQR): 2 MIU CMS
Protocol: The observed median (IQR) peak colistin concentration was 21,950 (10,440–28,389) μg/L in the ELF, while that in plasma was 43.51 (14.23–85.78) μg/L. Boisson et al. reported that, regardless of concentration, a significant adsorption of CMS to the mini-BAL device was not observed in studies utilizing the mini-BAL device. They also noted that non-specific adsorption was not significant at a concentration of 6 mg/L. Consequently, it appears from our study that there was no significant adsorption of CMS [23]. […] These studies measured concentrations of both CMS and colistin in the ELF, assuming equal V/fm for CMS and colistin. In our study, the V/fm of colistin in plasma was estimated at 67.4 L, which is much greater than the 13.7 L reported in Boisson et al.. Gkoufa et al. fixed this distribution volume at 13.7 L based on Boisson et al.. The CL/fm of colistin ... || The PK/PD index for colistin is the area under the free colistin concentration-–time curve at steady state over 24 h divided by the pathogen minimum inhibitory concentration (fAUC/MIC). Since we were unable to obtain MIC values for A. baumannii, we evaluated the relationship between the PK and PD of colistin by comparing the fAUC of each patient in accordance with their clinical outcomes and microbiological outcomes. AUC was calculated by dividing the daily dose by patient, which was the individual post hoc Bayesian estimate of the developed PK model. The bioavailability of colistin ...

[4] = system: A. baumannii; details: murine lung infection model; cited from earlier work
[5] = system: A. baumannii; details: among 2879 isolates, EUCAST; cited from earlier work

## CC[C@H](C)CCCCC(=O)N[C@@H](CCN)C(=O)N[C@H](C(=O)N[C@@H](CCN)C(=O)N[C@H]1CCNC(=O)[C@H]([C@@H](C)O)NC(=O)[C@H](CCN)NC(=O)[C@H](CCN)NC(=O)[C@H](CC(C)C)NC(=O)[C@@H](CC(C)C)NC(=O)[C@H](CCN)NC1=O)[C@@H](C)O [colistin] (X1-[Dab]T[Dab][Dab][Dab][dL]L[Dab][Dab]T; lactam 4-C)
[1]; 2000 bootstrap samples
  CL/fm, bootstrap median (95% CI): 0.529 (0.352–0.77) mL/min
  KAMAX, bootstrap median (95% CI): 0.533 (0.335–0.973)
  V/fm, bootstrap median (95% CI): 24.3 (11.0–46.7) mL
[1]; Weibull absorption
  KAMAX (maximum rate of absorption), estimate: 0.531
[1]; final PK model
  CL/fm, estimate: 0.541 mL/min
  V/fm, estimate: 23.0 mL
[2]; 2000 bootstrap samples
  CL/fm, bootstrap median (95% CI): 26.1 (6.66–67) mL/min
  KAMAX, bootstrap median (95% CI): 1.20 (0.912–1.59)
  V/fm, bootstrap median (95% CI): 67.2 (46.6–93) L
[2]; Weibull absorption
  KAMAX (maximum rate of absorption), estimate: 1.20
[2]; final PK model
  CL/fm, estimate: 26.3 mL/min
  V/fm, estimate: 67.4 L
[3]; jet nebulizer
  Maximum ELF concentration, median (IQR): 7.4 (6.2–10.3) mg/L
[3]; vibrating mesh nebulizer
  Maximum ELF concentration, median (IQR): 10.4 (4.7–22.6) mg/L
[3]; Boisson et al.
  CL/fm of colistin in plasma: 53.1 mL/min
  V/fm of colistin in plasma: 13.7 L
  V/fm of colistin in the ELF: 1.2 mL
[3]; Gkoufa et al.
  CL/fm of colistin in plasma: 128 mL/min
  V/fm of colistin in the ELF: 14.5 mL
[3]; assumed from the literature to calculate the PK/PD index
  Bioavailability of colistin: 9%
[3]; between ELF and plasma, Gkoufa et al.
  Intercompartmental CL/fm: 0.372 mL/min
[4]
  fAUC/MIC target values for a 2 log10 kill: 22.5–95.0 mg/L·h
[5]
  Isolates with a colistin MIC of 1 mg/L, number (%): 1451 (50.4%)
  Isolates with a colistin MIC of 2 mg/L, number (%): 539 (18.7%)
  Isolates with a colistin MIC of 4 mg/L, number (%): 54 (1.88%)
